In patent publication US20080146540A1, “Methods of diagnosis and treatment for asthma, allergic rhinitis and other respiratory diseases based on haplotype association” (priority 2003, published 2008):
Where two headings read alike, the source gives them in different places.

Tests used:
[1] = tested on: asthma patients; assay: Phase II clinical study CEP-1347-201: spirometry FEV/FVC; assay type: in vivo, human; settings: patients with near normal lung function at baseline
Source text: The overall mean baseline percent predicted FEV1 (forced expiratory […] in 1 second) and FEV1 values for the study were 96% and 2.9 liters, respectively.

[2] = target: choline acetyltransferase (ChAT); settings: cited from earlier work
[3] = tested on: IL-6; assay: Phase II clinical study CEP-1347-201: sputum IL-6; assay type: in vivo, human; settings: samples not collected in a systematic manner
[4] = tested on: TNFα; settings: lipopolysaccharide challenge; cited from earlier work
[5] = target: MLK1 (Homo sapiens, UniProt P80192); settings: MLK active site; cited from earlier work
[6] = tested on: exhaled nitric oxide (eNO); assay: Phase II clinical study CEP-1347-201: exhaled nitric oxide (eNO) change from baseline; assay type: in vivo, human; settings: for eNO Change from Baseline at Week 8, LS Mean: ANCOVA
Source text: eNO has been used as a biomarker for measuring airways inflammation. eNO correlates with eosinophilic inflammation in asthmatic patients and is increased in patients with untreated asthma and decreased with corticosteroid treatment.

[7] = tested on: IL-1β; settings: lipopolysaccharide challenge; cited from earlier work
[8] = tested on: TNFα; settings: standard in vitro pharmacological testing procedures (WO 97/49406); cited from earlier work
[9] = tested on: asthma patients; assay: Phase II clinical study CEP-1347-201: peak expiratory flow rate (PEFR; ANCOVA at week 8 and longitudinal model of daily PEFR); assay type: in vivo, human; settings: p=0.15; dose-response shape very similar to morning PEFR
[10] = tested on: asthma patients; settings: for patients reporting diarrhea: placebo 8%
[11] = tested on: VCAM-1; assay: Phase II clinical study CEP-1347-201: additional biomarkers of inflammation; assay type: in vivo, human; settings: prior to and 4 and 8 weeks after study drug administration; CEP-1347 vs placebo groups
Method: (§1) Biomarkers of inflammation were measured prior to and 4 and 8 weeks after study drug administration.

[12] = tested on: ICAM-1; assay: as above; assay type: in vivo, human; settings: prior to and 4 and 8 weeks after study drug administration; CEP-1347 vs placebo groups
Method: as §1

[13] = tested on: VEGF; assay: as above; assay type: in vivo, human; settings: prior to and 4 and 8 weeks after study drug administration; CEP-1347 vs placebo groups
Method: as §1

[14] = tested on: MCP-1; assay: as above; assay type: in vivo, human; settings: prior to and 4 and 8 weeks after study drug administration; CEP-1347 vs placebo groups
Method: as §1

[15] = tested on: subjects with Parkinson disease; assay: Rhinitis episodes in subjects with Parkinson disease on CEP-1347; assay type: in vivo, human
Source text: In a study examining for association of the MAP3K9 gene and Allergic Rhinitis, deCODE found an association of certain MAP3K9 haplotypes (Table 7A) with Allergic Rhinits, with RR of approximately 1.4 for each allele carried (p<0.05). The risk was highest in a subgroup of subjects with Allergic Rhinitis alone (RR of 1.6 and p=0.005). Additional support that the MAP3K9 gene may play a role in Allergic Rhinits comes from a study conducted on subjects with Parkinson disease. […] Indeed, none of the subjects in the 50 mg dose group (n=198) developed rhinitis whereas 6 subjects in the placebo group (n=191) developed rhinitis (p=0.01).

[16] = tested on: sE-Selectin; assay: Phase II clinical study CEP-1347-201: sE-Selectin change from baseline; assay type: in vivo, human; settings: for sE Selection Change from Baseline at Week 8, LS Mean: ANCOVA
Source text: Results from an ANCOVA (analysis of covariance) including treatment group as a factor and the baseline value as a covariate are presented in Table 24.

[17] = tested on: IL-8; assay: Phase II clinical study CEP-1347-201: sputum IL-8; assay type: in vivo, human; settings: samples not collected in a systematic manner
[18] = tested on: IL-1β; settings: standard in vitro pharmacological testing procedures (WO 97/49406); cited from earlier work

Sequence of MLK1 (P80192 whole entry): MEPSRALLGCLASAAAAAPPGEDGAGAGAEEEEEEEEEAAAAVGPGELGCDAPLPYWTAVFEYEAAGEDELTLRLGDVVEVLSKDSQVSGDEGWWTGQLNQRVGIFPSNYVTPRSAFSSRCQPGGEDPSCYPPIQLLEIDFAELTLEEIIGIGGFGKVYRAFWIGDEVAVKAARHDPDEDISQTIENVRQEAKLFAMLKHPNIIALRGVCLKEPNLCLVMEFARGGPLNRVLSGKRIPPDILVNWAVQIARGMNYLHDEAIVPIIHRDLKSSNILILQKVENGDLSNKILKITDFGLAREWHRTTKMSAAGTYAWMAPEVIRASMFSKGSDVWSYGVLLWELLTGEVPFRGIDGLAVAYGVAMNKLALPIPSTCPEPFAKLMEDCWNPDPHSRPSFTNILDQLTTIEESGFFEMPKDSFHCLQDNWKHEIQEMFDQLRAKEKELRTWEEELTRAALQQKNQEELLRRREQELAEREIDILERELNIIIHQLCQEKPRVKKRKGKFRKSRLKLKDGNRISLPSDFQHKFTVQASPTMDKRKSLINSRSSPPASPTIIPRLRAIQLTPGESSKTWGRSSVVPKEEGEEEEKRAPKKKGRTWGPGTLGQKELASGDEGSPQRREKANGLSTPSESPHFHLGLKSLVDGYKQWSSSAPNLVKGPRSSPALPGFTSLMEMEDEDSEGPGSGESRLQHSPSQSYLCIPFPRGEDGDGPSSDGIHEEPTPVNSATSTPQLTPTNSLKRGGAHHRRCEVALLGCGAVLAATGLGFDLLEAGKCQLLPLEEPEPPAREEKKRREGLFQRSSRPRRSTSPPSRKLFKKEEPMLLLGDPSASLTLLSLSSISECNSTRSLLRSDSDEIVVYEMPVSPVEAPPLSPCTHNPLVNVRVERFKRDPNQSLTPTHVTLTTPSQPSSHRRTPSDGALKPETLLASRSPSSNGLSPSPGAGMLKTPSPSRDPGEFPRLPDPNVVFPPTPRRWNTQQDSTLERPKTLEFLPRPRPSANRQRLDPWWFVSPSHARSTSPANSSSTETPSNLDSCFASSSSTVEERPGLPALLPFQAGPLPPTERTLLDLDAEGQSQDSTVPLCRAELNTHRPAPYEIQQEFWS

For CCSCc1ccc2c(c1)c1c3c(c4c5cc(CSCC)ccc5n5c4c1n2C1CC(O)(C(=O)OC)C5(C)O1)CNC3=O (stereo not drawn) [CEP-1347], the “FEV/FVC (ANCOVA)” value [1] is given as “no clear treatment related trends or statistically significant changes”, the EC50 ([2]; greater potency than K-252a, read-out: potency (EC50) in spinal cord ChAT assays) is given as 50 nM and the “efficacy in spinal cord ChAT assays” value ([2]; greater than K-252a) is given as 250 % of control. The “sputum IL-6 (ANCOVA)” value [3] was “no clear treatment related trends or statistically significant changes”, the “production of TNFα by mice after LPS challenge” value [4] was “reduces production” and the “kinetics of inhibition of MLK kinases, mode of action” value [5] was “competitive with the binding of adenosine triphosphate”. For the same compound, the “eNO Change from Baseline at Week 8, LS Mean” value (“eNO Change … LS Mean” below) ([6]; 10 mg BID, p 0.26) was −4.86, the “eNO Change … LS Mean” value ([6]; 25 mg BID, p 0.86) was −1.88 and the “eNO Change … LS Mean” value ([6]; 50 mg BID, p 0.58) was −3.08. For the same compound, the “eNO change from baseline at week 8 (ANCOVA)” value ([6]; all CEP-1347 treatment groups relative to placebo, none of the changes achieved statistical significance) was “greater decrease”, the “production of IL-1β by mice after LPS challenge” value [7] was “reduces production” and the “production of TNFα by cultured cells” value [8] was “inhibit the production”. The “daily evening PEFR, CEP-1347 effect in longitudinal model” value [9] was “borderline significant”, the “subjects reporting a severe adverse event” value ([10]; 10 mg BID group) was 2 and the “subjects reporting a severe adverse event” value ([10]; 25 mg BID group) was 1. The “subjects reporting a severe adverse event” value ([10]; 50 mg BID group) was 1, the patients reporting diarrhea ([10]; CEP-1347 groups, all doses combined) was 15% and the “subjects reporting a severe adverse event, total” value ([10]; all groups) was “four”. The patients reporting diarrhea ([10]; high dose group (50 mg BID)) was 20%, the headache incidence ([10]; treatment group (all CEP-1347 doses), placebo 5%) was 9% and the deaths ([10]; whole study) was “no deaths”. The “concentration of VCAM-1” value [11] was “No differences”, the “concentration of ICAM-1” value [12] was “No differences” and the “concentration of VEGF” value [13] was “No differences”. For the same compound, the “concentration of MCP-1” value [14] was “No differences”, the “subjects who developed rhinitis” value ([15]; 50 mg dose group (n=198), 6 subjects in placebo group (n=191), p=0.01) was “none” and the “AR episodes (rhinitis episodes)” value ([15]; 50 mg twice daily (bid), N=198, placebo 6 (N=191), p = 0.01) was 0. For the same compound, the “sE Selection Change from Baseline at Week 8, LS Mean” value (from here on “sE Selection Change from Baseline”) ([16]; 10 mg BID, p 0.12) was −1.49, the “sE Selection Change from Baseline” value ([16]; 25 mg BID, p 0.005) was −3.18 and the “sE Selection Change from Baseline” value ([16]; 50 mg BID, p 0.26) was −1.00. For the same compound, the sE-Selection levels ([16]; CEP-1347 treated groups compared to placebo, p=0.02) was “significantly lower”, the “sputum IL-8 (ANCOVA)” value [17] was “no clear treatment related trends or statistically significant changes” and the “production of IL-1β by cultured cells” value [18] was “inhibit the production”.
